Experimental data published in patent publication US20200369674A1, “ANTI-PAIN COMPOUND AND PREPARATION METHOD THEREOF” (LUNAN PHARMACEUTICAL GROUP CORPORATION, priority 2017, published 2020).

How the values were obtained:
Assay type in all cases: in vivo
ICR mice [1] = test: Xylene-induced mouse ear swelling test (Effect Example 4); design: key to Inhibition rate (%): Symbol “—” indicates that the data obtained at this dose was not significantly different from the vehicle control group; settings: 50 uL xylene two hours after administration; for inhibition in vivo at 4 µmol/kg: 4 μmol/kg intragastric; for inhibition in vivo at 3 mg/kg: 3 mg/kg intragastric
Method: (§1) ICR mice, 18-22 g, half of them being male and the other half being female, provided by the Department of Laboratory Animals, Peking University (License No.: SCXK (Beijing) 2016-0010).
ICR mice were randomly grouped, 8 mice per group, half of them being male and the other half being female. Vehicle control group (double-distilled water) and groups for samples to be tested (the compounds and doses thereof were shown in Table 4). All drugs were dissolved in double-distilled water immediately before administration, and given by intragastric administration at predetermined doses. Two hours after administration, 50 uL of xylene was smeared evenly on the inner and outer sides of right ear of mouse. After 30 minutes, the left and right ears of mouse were cut, and circular ear pieces of the same size were punched at the same position on the left and right ears, and weighed. The ear swelling inhibition rate of compound in mice was calculated according to the formula.
Inhibition rate %=(degree of ear swelling in vehicle control group−degree of ear swelling in test group)/degree of ear swelling in vehicle control group×100

ICR mice [2] = test: Formalin experiment; settings: Mus musculus, po, 2 h, 2.5% formalin two hours after administration, phase II 10-60 minutes, read-out: Phase II pain inhibition rate (%); for inhibition in vivo at 4 µmol/kg: 4 μmol/kg intragastric; for inhibition in vivo at 1 mg/kg: 1 mg/kg intragastric; for inhibition in vivo at 9 mg/kg: 9 mg/kg intragastric
Method: as §1
ICR mice, half of them being male and the other half being female, were randomly grouped, 8 mice per group. Vehicle control group (double-distilled water) and groups for samples to be tested were set, in which the compounds and doses thereof were shown in Table 3. All drugs were dissolved in double-distilled water before administration, and given by intragastric administration at predetermined doses. Two hours after administration, the mice were injected with 20 ul of 2.5% formalin solution in the right hind foot, and the time (s) of licking or biting foot was recorded as an index of pain response, in which 0-5 minutes was phase I, 10-60 minutes was phase II, and the total observation time was 60 minutes. The phase II pain inhibition rate of compound in mice was calculated according to the following formula:
Inhibition rate %=(time of licking or biting foot in vehicle control group−time of licking or biting foot in test group)/time of licking or biting foot in vehicle control group×100

ICR mice [3] = test: Acetic acid writhing test; design: key to Inhibition rate (%): Symbol “—” indicates that the data obtained at this dose was not significantly different from the vehicle control group; settings: 0.6% acetic acid ip two hours after administration; for inhibition in vivo at 3 mg/kg: po, 3 mg/kg intragastric
Method: as §1
ICR mice, half of them being male and the other half being female, were randomly grouped, 8 mice per group. Vehicle control group (double-distilled water), ibuprofen control group, and groups for samples to be tested (the compounds and doses thereof were shown in Table 2) were set. All drugs were dissolved in double-distilled water before administration, and given by intragastric administration at predetermined doses. Two hours after the administration, the mice were intraperitoneally injected with 0.6% acetic acid solution (10 ml/kg, ip), and the number of times the mice writhed (abdomen depressed, buttock raised, body elongated) was recorded within 5-20 minutes. The inhibition rate % of compound on writhing pain in mice was calculated according to the following formula.
Inhibition rate %=(number of writhing times in vehicle control group−number of writhing times in test group)/number of writhing times in vehicle control group×100

ICR mice [4] = test: Hot plate test; settings: Mus musculus, po, latency 2.0 hours after administration, hot plate 55° C., read-out: PTE %; for change in vivo at 4 µmol/kg: 4 μmol/kg intragastric; for change in vivo at 1 mg/kg: 1 mg/kg intragastric; for change in vivo at 3 mg/kg: 3 mg/kg intragastric
Method: as §1
The temperature of hot plate was adjusted to 55° C., and the responses of mouse such as licking hind feet and jumping were used as the observation indexes. The time from the placement of mice on copper plate to the appearance of the above responses was defined as latency time. The latency time was measured for three times 30 minutes before administration, and the average value thereof was used as basic threshold, or baseline latency (BL). The animals with a latency time greater than 15 s and less than 5 s were removed, and the residual mice were randomly grouped, 8 animals per group.
Vehicle control group (double-distilled water) and groups for samples to be tested (the compounds and doses thereof were shown in Table 1) were set. All drugs were dissolved in […] before administration, and given by intragastric administration. The latency time was measured 2.0 hours after administration. Percentage of Pain Threshold Elevated Rate (PTE %) of compound on mice was calculated according to the following formula:
PTE %=(latency time of test group−latency time of vehicle control group)/latency time of vehicle control group×100

ICR mice [5] = test: Xylene-induced ear swelling test in mice (Effect Example 6); settings: 2 mg/kg i.g., 30 μL xylene one hour after administration
Method: (§2) ICR mice, body weight 18 g-22 g, half of them being male and the other half being female, provided by the Department of Laboratory Animals, Peking University. The animals were raised in a standard environment: temperature 23±1° C., relative humidity 55±5%, light-dark cycle 12 h/12 h, and fed with standard pellet feed.
Mice were randomly divided into 5 groups, 8 mice per group, half of them being male and the other half being female. Vehicle control group (double-distilled water, i.g.), dexamethasone control group (2 mg/kg, i.g.), compound DXL-A-22 group (1 mg/kg, i.g.), and compound DXL-A-24 group (1 mg/kg, i.g.) were set. All drugs were dissolved in double-distilled water before administration, and given by intragastric administration at 0.1 mL/10 g. One hour after administration, 30 μL of xylene was evenly smeared on the inner and outer sides of right ear of mouse to cause inflammation. After 0.5 hour, the left and right ears of mouse were cut, and circular ear pieces of the same size were punched at the same position on the left and right ears using the punch (diameter 6 mm) respectively, and weighed for the weights of the left and right ear pieces. The difference between the weight of the right ear after applying xylene and the weight of the left ear without applying xylene was used as swelling degree index (i.e., swelling degree). The swelling degree was calculated according to formula (1). The intensity of anti-inflammatory effect was expressed as inhibition rate (%), and the inhibition rate (%) was calculated according to formula (2).
Swelling degree=weight of right ear piece−weight of left ear piece (1)
Inflammation inhibition rate (%)=(ear swelling degree in vehicle control group−ear swelling degree in drug group)/ear swelling degree in vehicle control group×100% (2)

ICR mice [6] = test: Carrageenan-induced paw swelling in mice; settings: 0.5 mg/kg i.g.
Method: as §2
The mouse was fixed in a special holder, and both hind feet were exposed. Before the test, a line was drawn at 0.5 cm below the ankle joint of mouse with a marker, and used as a mark for measuring plantar volume. 30 minutes before administration the volume of right hind foot was measured as basic threshold. The mice were randomly divided into 5 groups, 8 mice per group, half of them being male and the other half being female. Vehicle control group (double-distilled water, i.g.), dexamethasone control group (0.5 mg/kg, i.g.), compound DXL-A-22 group (1 mg/kg, i.g.), and DXL-A-24 group (1 mg/kg, i.g.) were set. All drugs were dissolved in double-distilled water before administration, and were administered at 0.1 mL/10 g. Immediately after intragastric administration, 20 μL of 5% carrageenan saline solution was injected subcutaneously in the right hind foot of the mice, and the plantar volumes were measured at time points of 0.5 h, 1 h and 2 h after injection. The difference between the plantar volume of right foot after injection of carrageenan and the plantar volume of right foot before injection was used as swelling degree index (i.e., swelling degree). The swelling degree was calculated according to formula (3). The intensity of anti-inflammatory effect was expressed as inhibition rate (%), and the inhibition rate (%) was calculated according to formula (4).
Swelling degree=plantar volume of right foot after injection−plantar volume of right foot before injection (3)
Inflammation inhibition rate (%)=(plantar swelling degree in vehicle control group−plantar swelling degree in drug administration group)/plantar swelling degree in vehicle control group×100% (4)

[7] = Mus musculus, po, 2 h, read-out: Inhibition rate (%)
[8] = Mus musculus, 2 h, read-out: Inhibition rate (%)

Row | SMILES | inhibition in vivo at 4 µmol/kg (ICR mice [1]; [7]) [%] | inhibition in vivo at 4 µmol/kg (ICR mice [2]) [%] | change in vivo at 4 µmol/kg (ICR mice [4]) [%] | inhibition in vivo at 1 mg/kg (ICR mice [2]) [%] | Inhibition rate (%) (ICR mice [3]; 1 mg/kg intragastric) | change in vivo at 1 mg/kg (ICR mice [4]) [%] | further results
1 | FC(F)(F)c1cc(N2CC[N+]3(CCCC3)CC2)cc(C(F)(F)F)c1 [DXL-A-27, 8-(3,5-bis(trifluoromethyl)phenyI)-5,8-diazaspiro[4.5]decan-5-ium bromide] | 4.13 | 20.1 | 49 |  |  |  | Inhibition rate (%) (ICR mice [3]; 4 μmol/kg intragastric): —
2 | Clc1ccc(N2CC[N+]3(CCCC3)CC2)cc1.[Br-] [DXL-A-23, 8-(4-chlorophenyl)-5,8-diazaspiro[4.5]decan-5-ium bromide] |  |  |  | 39.2 | — | 39.2 | Inhibition rate (%) (ICR mice [1]; 1 mg/kg intragastric): —
3 | FC(F)(F)c1cccc(N2CC[N+]3(CCCC3)CC2)c1 [DXL-A-06, 8-(3-(trifluoromethyl)phenyl)-5,8-diazaspiro[4.5]decan-5-ium bromide] |  |  |  |  |  |  | inhibition in vivo at 3 mg/kg (ICR mice [1]; [7]): 45.9%; inhibition in vivo at 9 mg/kg (ICR mice [2]): 17.6%; inhibition in vivo at 3 mg/kg (ICR mice [3]; [8]): 14%; change in vivo at 3 mg/kg (ICR mice [4]): 16.7%
4 | Br.Fc1ccc(N2CC[N+]3(CCCC3)CC2)cc1F [DXL-A-21, 8-(3,4-difluorophenyl)-5,8-diazaspiro[4.5]decan-5-ium bromide] |  |  |  | 36.6 | — | 36.6 | inhibition in vivo at 1 mg/kg (ICR mice [1]; Mus musculus, po, 2 h, 1 mg/kg intragastric, read-out: Inhibition rate (%)): 42.5%
5 | C[C@@H]1C[C@H]2[C@@H]3CCC4=CC(=O)C=C[C@]4(C)[C@@]3(F)[C@@H](O)C[C@]2(C)[C@@]1(O)C(=O)CO [Dexamethasone, reference compound] |  |  |  |  |  |  | Inhibition rate (%) (ICR mice [5]): 69.28%; Swelling degree (ICR mice [5]; mean±SD): 2.93 ± 0.32 mg; 0.5 h inhibition rate (%) (ICR mice [6]; 0.5 h after carrageenan injection): 69.55%; 0.5 h swelling degree (μL) (ICR mice [6]; 0.5 h after carrageenan injection, mean±SD): 26.00 ± 14.21**/ μL; 1 h inhibition rate (%) (ICR mice [6]; 1 h after carrageenan injection): 77.06%; 1 h swelling degree (μL) (ICR mice [6]; 1 h after carrageenan injection, mean±SD): 19.88 ± 10.09**/ μL; 2 h inhibition rate (%) (ICR mice [6]; 2 h after carrageenan injection): 84.64%; 2 h swelling degree (μL) (ICR mice [6]; 2 h after carrageenan injection, mean±SD): 17.13 ± 11.54**/ μL
6 | Cc1cc(N2CC[N+]3(CCCC3)CC2)cc([N+](=O)[O-])c1 [DXL-A-29, 8-(3-methyl-5-nitrophenyl)-5,8-diazaspiro[4.5]decan-5-ium bromide] | 63.3 | 17.3 | 36 |  |  |  | inhibition in vivo at 4 µmol/kg (ICR mice [3]; Mus musculus, 2 h, 4 μmol/kg intragastric, read-out: Inhibition rate (%)): 76%
7 | Br.N#Cc1ccc(N2CC[N+]3(CCCC3)CC2)cc1 [DXL-A-19, 8-(4-cyanophenyl)-5,8-diazaspiro[4.5]decan-5-ium bromide] |  |  |  | 34.3 | — | 34.3 | Inhibition rate (%) (ICR mice [1]; 1 mg/kg intragastric): —
8 | Cc1cccc(N2CC[N+]3(CCCC3)CC2)c1 [DXL-A-10, 8-(m-tolyl)-5,8-diazaspiro[4.5]decan-5-ium bromide] |  |  |  |  |  |  | inhibition in vivo at 3 mg/kg (ICR mice [1]; [7]): 27.4%; inhibition in vivo at 9 mg/kg (ICR mice [2]): 46.9%; inhibition in vivo at 3 mg/kg (ICR mice [3]; [8]): 29.8%; change in vivo at 3 mg/kg (ICR mice [4]): 11.2%
9 | Br.Fc1ccc(N2CC[N+]3(CCCC3)CC2)cc1 [DXL-A-16, 8-(4-fluorophenyl)-5,8-diazaspiro[4.5]decan-5-ium bromide] |  |  |  | 31.4 | — | 31.4 | Inhibition rate (%) (ICR mice [1]; 1 mg/kg intragastric): —
10 | N#Cc1ccc(N2CC[N+]3(CCCC3)CC2)cc1[N+](=O)[O-].[Br-] [DXL-A-32, 8-(4-cyano-3-nitrophenyl)-5,8-diazaspiro[4.5]decan-5-ium bromide] | 20.4 | 2.64 | 38 |  |  |  | Inhibition rate (%) (ICR mice [3]; 4 μmol/kg intragastric): —
11 | O=[N+]([O-])c1cc(N2CC[N+]3(CCCC3)CC2)cc(C(F)(F)F)c1 [DXL-A-28, 8-(3-nitro-5-(trifluoromethyl)phenyI)-5,8-diazaspiro[4.5]decan-5-ium bromide] | 9.27 | 13.3 | 36 |  |  |  | Inhibition rate (%) (ICR mice [3]; 4 μmol/kg intragastric): —
